Some test systems named below: Malme-3M; UO-31; M19-MEL; UACC-257; U-251; SNB-75; MOLT-4; RXF 393; HCC 2998; TK-10; ACHN; SF-539; CCRF-CEM; NCI-H522; SNB-19; A498; OVCAR-5; SK-MEL-2; NCI/ADR-RES; MDA-MB-435.
Common to all, as to experiment: DTP human tumour cell line panel, 48 h

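Where inhibition never reached the appropriate level, the endpoint shown equals the highest concentration tested. Otherwise, values were interpolated linearly from a five-concentration, 48-hour dose response in 96-well plates. Here, GI50 denotes the concentration required for 50% inhibition of growth.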 Calls of active or inactive are those of the source. Cut-off read from the data, not from the text of the source: active = GI50 up to about 1.1 µM and inactive = higher. Where only a bound is given, the exact number is not on record here.

Usually GI50 stands for the concentration at which growth is held to half of that of the control.

Turning to `C=CCC1(CC)C(=O)NC(=O)NC1=O` [ETALLOBARBITAL], the GI50 in the experiment with Malme-3M, with UO-31, with M19-MEL, in the experiment on UACC-257, in the experiment with U-251 and in the experiment with SNB-75 was > 100 µM (inactive) throughout. Besides, the GI50 in the experiment on MOLT-4, with RXF 393, with HCC 2998, with TK-10, in the experiment with ACHN and in the experiment on SF-539 was > 100 µM (inactive) each time. Moreover, the GI50 with CCRF-CEM, with NCI-H522 and in the experiment with SNB-19 was > 100 µM (inactive) each time.

`COc1cc(OC)c(C2CC=Cc3c(OC)cc(OC)c(OC)c32)cc1OC` (stereo unspecified): the GI50 in the experiment with Malme-3M, in the experiment with UO-31, with M19-MEL, in the experiment with UACC-257, in the experiment with U-251 and in the experiment on A498 was > 100 µM (inactive) in each case. Also, the GI50 in the experiment on SNB-75, in the experiment with MOLT-4, in the experiment with OVCAR-5, in the experiment on RXF 393, in the experiment with HCC 2998 and in the experiment with TK-10 was > 100 µM (inactive) in each case. For the same molecule, the GI50 with ACHN, in the experiment with SF-539, in the experiment on CCRF-CEM and in the experiment with SK-MEL-2 was > 100 µM (inactive) each time.

For `CCCCC1(C)C=C/C(=C2/C(=O)O/C(=C\C(=O)O)C2=O)O1` (stereo unspecified), the GI50 in the experiment on Malme-3M, with UO-31, in the experiment on M19-MEL, in the experiment on UACC-257, in the experiment with U-251 and in the experiment with A498 was > 100 µM (inactive) each time. The GI50 in the experiment with SNB-75, in the experiment on MOLT-4, in the experiment on OVCAR-5, with TK-10, in the experiment on ACHN and in the experiment with SF-539 was > 100 µM (inactive) in each case. Besides, the GI50 in the experiment on CCRF-CEM, in the experiment on SNB-19 and with SK-MEL-2 was > 100 µM (inactive) throughout.

Consider `O=c1c2cc(Br)ccc2nc(-c2ccccc2Cl)n1NCC1(O)OCC(O)C(O)C1O` (stereo unspecified), for which the GI50 in the experiment with Malme-3M, with UO-31, in the experiment with M19-MEL, in the experiment with UACC-257, in the experiment with U-251 and with A498 was > 100 µM (inactive) each time. Also, the GI50 is > 100 µM (inactive) in the experiment on SNB-75; 57.1 µM (inactive) with MOLT-4; > 100 µM (inactive) in the experiment on OVCAR-5; > 100 µM (inactive) in the experiment with RXF 393; > 100 µM (inactive) with ACHN; 46.7 µM (inactive) in the experiment on CCRF-CEM. Besides, the GI50 in the experiment with NCI-H522, in the experiment on SNB-19 and with SK-MEL-2 was > 100 µM (inactive) throughout.

For `OCc1c[te]c(-c2ccccc2)c1`, the GI50 was > 100 µM (inactive) in the experiment on Malme-3M; 23.3 µM (inactive) in the experiment on UO-31; 33.9 µM (inactive) with M19-MEL; 57.5 µM (inactive) in the experiment with UACC-257; 34.6 µM (inactive) with U-251; 92.3 µM (inactive) in the experiment with A498. Moreover, the GI50 with SNB-75 was 44.5 µM (inactive); in the experiment with MOLT-4, 38.8 µM (inactive); in the experiment with OVCAR-5, > 100 µM (inactive); with RXF 393 it was 42.2 µM (inactive); in the experiment with HCC 2998 it was > 100 µM (inactive); in the experiment with TK-10, > 100 µM (inactive). Besides, the GI50 is 53.3 µM (inactive) in the experiment with ACHN, 28.4 µM (inactive) with SF-539, 17.5 µM (inactive) in the experiment with CCRF-CEM and 25.8 µM (inactive) in the experiment on SK-MEL-2.

For `CCOc1ccc(/N=N/c2ccc3oc(=O)c(/C(C)=N/NC(=O)CC(=O)Nc4cccc(OC)c4)cc3c2)cc1`, the GI50 was 16.8 µM (inactive) in the experiment on Malme-3M; 12.3 µM (inactive) in the experiment on UO-31; 23.8 µM (inactive) in the experiment on M19-MEL; 3.8 µM (inactive) in the experiment on UACC-257; 10.6 µM (inactive) in the experiment with U-251; 3.56 µM (inactive) with MOLT-4. For the same molecule, the GI50 in the experiment with OVCAR-5 was > 46.6 µM (inactive); in the experiment on RXF 393 it was 17.3 µM (inactive); in the experiment with HCC 2998, 15.6 µM (inactive); in the experiment on TK-10, 28.3 µM (inactive); in the experiment with ACHN, 21.3 µM (inactive); in the experiment on SF-539, 17.2 µM (inactive). Also, the GI50 in the experiment with CCRF-CEM was 3.16 µM (inactive); in the experiment with NCI-H522 it was 21.4 µM (inactive); with SNB-19, 12.2 µM (inactive); in the experiment with SK-MEL-2, 20.8 µM (inactive).

For `O=C1O/C(=C\c2ccc(O)cc2)C(c2ccc(O)c(Cl)c2)=C1Cl`, the GI50 is 24.5 µM (inactive) with Malme-3M; 35.2 µM (inactive) in the experiment with UO-31; 49.5 µM (inactive) with UACC-257; 36.2 µM (inactive) in the experiment on NCI/ADR-RES; 60.5 µM (inactive) with U-251; 33.6 µM (inactive) with A498. The GI50 in the experiment on SNB-75 is 70 µM (inactive); in the experiment with MOLT-4 it was 49.7 µM (inactive); in the experiment on OVCAR-5, > 100 µM (inactive); with RXF 393, 30.9 µM (inactive); in the experiment on HCC 2998, 38.2 µM (inactive); in the experiment with MDA-MB-435 it was 27.4 µM (inactive). In addition, the GI50 in the experiment on TK-10 was 54.8 µM (inactive); in the experiment with ACHN, 57.7 µM (inactive); in the experiment with SF-539 it was 91.8 µM (inactive); in the experiment on CCRF-CEM, 35.7 µM (inactive); in the experiment on NCI-H522, 23 µM (inactive); in the experiment with SNB-19 it was 76.9 µM (inactive). Further, in the experiment on SK-MEL-2, the GI50 was 31.2 µM (inactive).

For `NC(Cc1n[nH]c2ccccc12)C(=O)O` (stereo unspecified), the GI50 in the experiment with Malme-3M, with UO-31, in the experiment on UACC-257, in the experiment with NCI/ADR-RES, with U-251 and in the experiment on A498 was > 100 µM (inactive) each time. Further, the GI50 in the experiment on SNB-75, in the experiment with MOLT-4, with OVCAR-5, with RXF 393, with HCC 2998 and with MDA-MB-435 was > 100 µM (inactive) throughout. Besides, the GI50 with TK-10, in the experiment with ACHN, with SF-539, in the experiment with CCRF-CEM, with NCI-H522 and with SNB-19 was > 100 µM (inactive) throughout. The GI50 in the experiment on SK-MEL-2 is 0.104 µM (active).

On to `C#CC1(O)C(COP(=O)(O)OCC2OC(n3ccc(NCCCCCCCCCCCCCCCCCC)nc3=O)C(O)C2O)OC(n2ccc(N)nc2=O)C1O` (stereo unspecified), for which the GI50 in the experiment on Malme-3M is 0.745 µM (active); in the experiment on UO-31, 0.0716 µM (active); with UACC-257 it was 4.05 µM (inactive); in the experiment with NCI/ADR-RES, 0.556 µM (active); in the experiment on U-251, 0.959 µM (active); with A498 it was 3.6 µM (inactive). The GI50 in the experiment with SNB-75 is 2.67 µM (inactive); in the experiment with MOLT-4, 0.418 µM (active); in the experiment on OVCAR-5, 5.36 µM (inactive); with RXF 393, 4.15 µM (inactive); with HCC 2998, 0.703 µM (active); in the experiment with MDA-MB-435, 0.575 µM (active). Moreover, the GI50 in the experiment on TK-10 is 0.401 µM (active); with ACHN, 0.175 µM (active); in the experiment on SF-539 it was 1.16 µM (inactive); in the experiment on CCRF-CEM, 0.929 µM (active); in the experiment with NCI-H522, 0.032 µM (active); in the experiment on SNB-19, 2.71 µM (inactive). Moreover, the GI50 in the experiment with SK-MEL-2 is 0.67 µM (active).

Regarding `Cc1ccc(C2=CC(=O)c3ccccc3C2=O)n1-c1ccccc1`, the GI50 is > 100 µM (inactive) in the experiment with M19-MEL; 46.7 µM (inactive) with U-251; > 100 µM (inactive) in the experiment on SNB-75; 26.1 µM (inactive) in the experiment on MOLT-4; > 100 µM (inactive) in the experiment on RXF 393; > 100 µM (inactive) in the experiment on HCC 2998. Further, the GI50 was > 100 µM (inactive) in the experiment on TK-10; 89.9 µM (inactive) in the experiment on SF-539; 23 µM (inactive) in the experiment with CCRF-CEM; > 100 µM (inactive) in the experiment on NCI-H522; 35.6 µM (inactive) in the experiment on SNB-19.

As for `C#C/C=C\CCCCCCCCCCCCCC/C=C\CCCCC#CC(O)C#CCCCC/C=C\CCCCCC/C=C/C(O)C#C` (stereo unspecified), the GI50 was 17.1 µM (inactive) in the experiment with Malme-3M; 15.6 µM (inactive) with UO-31; 27 µM (inactive) in the experiment on UACC-257; 31.5 µM (inactive) in the experiment on NCI/ADR-RES; 31.9 µM (inactive) in the experiment with U-251; 30.1 µM (inactive) with A498. Besides, the GI50 in the experiment with SNB-75 is 42.7 µM (inactive); with MOLT-4 it was 10.1 µM (inactive); in the experiment on OVCAR-5 it was 26.1 µM (inactive); with RXF 393, 15.8 µM (inactive); in the experiment with HCC 2998, 13.1 µM (inactive); in the experiment with MDA-MB-435, 4.58 µM (inactive). For the same molecule, the GI50 with TK-10 was 21.6 µM (inactive); in the experiment on ACHN, 20.8 µM (inactive); in the experiment with SF-539, 29.6 µM (inactive); in the experiment on CCRF-CEM it was 5.25 µM (inactive); in the experiment on NCI-H522, 5.7 µM (inactive); in the experiment on SNB-19 it was 25.1 µM (inactive). Further, the GI50 with SK-MEL-2 was 12.9 µM (inactive).

As to `CN(C)c1ccc(-c2cc(O)c3cc4c(cc3n2)OCO4)cc1`, the GI50 in the experiment with Malme-3M, in the experiment on UO-31, in the experiment with M19-MEL, with UACC-257, with U-251 and with A498 was > 100 µM (inactive) throughout. Also, the GI50 in the experiment on SNB-75 was 4.33 µM (inactive); in the experiment with MOLT-4, > 100 µM (inactive); in the experiment on RXF 393, > 100 µM (inactive); in the experiment on HCC 2998 it was > 100 µM (inactive); in the experiment with TK-10, > 100 µM (inactive); in the experiment with ACHN, > 100 µM (inactive). The GI50 in the experiment on SF-539, with CCRF-CEM, in the experiment on SNB-19 and in the experiment with SK-MEL-2 was > 100 µM (inactive) in each case.
